Measurements: patent US8420692B1, “Heterocyclic and carbonate derivatives of NDGA and their use as new anti-HIV and anti-cancer agents” (The Johns Hopkins University, priority 2006, dated 2013)
Where a name gives a salt, the structure may show the parent alone.

What was measured:
[1] = system: human breast cancer line MCF-7; assay: MTT-based cytotoxicity / proliferation assay, MCF-7; assay type: cell-based
Procedure: The cytotoxicity of P4N against Vero cells and human cancer cells HEP3B, HT29 and MCF7 was analyzed using an MTT [3-(4,5-dimethylthiazol-2-yl)-2,5-diphenyltetrazolium bromide]-based assay (Sigma). The absorbance of OD570 was a measurement of formazon crystals solubilized in DMSO from metabolically active cells. Procedures were discussed in Huang R C C, et al. in Antiviral Res 58, 57-64 2003.^10
We have previously shown that M4N arrests tumor cells growth at G2-M phase of the cell cycle by reducing the level of Cdc2 protein and kinase activity,^17,18 and induces apoptosis by suppressing survivin gene expression and protein stability and activating the mitochondrial apoptosis pathway.^17 M4N is able to reverse the multidrug resistance by inhibiting the Sp1-regulated MDR1 gene expression and preventing the synthesis of p-glycoprotein (Pgp).^24 To investigate the effect of water soluble NDGA derivative P4N on growth of the transformed cells, four cell lines, Vero cell (African green monkey kidney cells), human liver cancer line Hep3B, colon cancer cell line HT29, and human breast cancer line MCF-7 were selected for testing. The Vero cell line is aneuploid.

[2] = Stability in aqueous solution (time dependent UV spectra); assay type: physicochemical; settings: HCl salts, 28 days at 20° C., FIG. 1
Procedure: FIG. 1: Stability of Two NDGA Derivatives G4N and P4N(HCl salts) in Aqueous Solution. Time Dependent Changes in UV spectra showing (a) G4N is unstable and (b) meso-2,3-dimethyl-1,4-bis(3,4-[2-piperidino)ethoxyphenyl])butane (P4N) (compound 5b in Scheme 1) (day 1, 2, 8, 13, 28) is stable in Milli-Q water after 28 days at 20° C.
The new NDGA derivatives (Scheme 1) were found stable in aqueous solution; >99% of these compounds remained intact after 28 days (see FIG. 1(b)). In a sharp contrast, >96% G4N (4) decomposed in aqueous solution within 24 h (see FIG. 1(a)).

HSV-2 = assay: Efficacy against HSV-2 in a mouse vaginal model; assay type: in vivo; settings: for Toxicity in animals: female mice treated locally with 10 mM
Procedure: The efficacies of P4N against HSV-2 in a mouse vaginal model system have been examined. Progestin treated female CF-1 mice (10 per group) were infected with HSV-2 in the absence or presence of P4N (in PBS). At the end of three days, the vaginal lavages were collected from the washings of the vaginal regions. The status of the vaginal HSV-2 infection and replication were examined by their cytopathic effects on cultured human foreskin fibroblast cells. Monitoring and scoring were carried out by three persons independently. […] At 10 mM concentration only 2 of 10 mice were weakly infected.

In the case of C[C@H](Cc1ccc(OCCN2CCCCC2)c(OCCN2CCCCC2)c1)[C@@H](C)Cc1ccc(OCCN2CCCCC2)c(OCCN2CCCCC2)c1 [Compound 5b, meso-2,3-Dimethyl-1,4-bis(3,4-[2-(piperidino)ethoxyphenyl])butane Tetrakishydrochloride Salt], the IC50 ([1]; 48 hrs, 37° C.) is reported as 1400 nM, the “Concentration that effectively eliminates growth of tumor cells” value ([1]; MCF-7, FIG. 11) is reported as < 5 µM and the “Stability in Milli-Q water (UV spectra)” value [2] is reported as “stable”. For the same compound, the “Mice weakly infected with HSV-2” value (HSV-2; 10 mM P4N in PBS, local, female CF-1 mice, 10 per group, day 3 vaginal lavage) was 2 of 10, the “Average scale of vaginal HSV-2 infection (cytopathic effect score)” value (HSV-2; 10 mM P4N, 2.43 in the absence of P4N) was 0.19 and the Toxicity in animals (HSV-2) was “no apparent sign of toxicity”. For the same compound, the Toxicity in animals (HSV-2; listed as P4N) was “little or no toxicity”.
